The target of this test is T1, human LPA1 (Homo sapiens, UniProt Q92633).
T1 construct: the full-length cDNA for human LPA1 was obtained by PCR of the reverse transcription reaction; expressed in transfected cells
The test can be described thus: LPA1 calcium flux assay. The format is cell-based. Particulars: human LPA1 expressing CHO cells, stimulated with 10 nM LPA; read-out: HLPA1 Ca Flux IC50. In short, it runs like this: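 CHO cells stably expressing human LPA1, serum-starved overnight and loaded with Calcium 4 dye in HBSS/20 mM Hepes/0.3% fatty-acid-free HSA, 1 h at 37 °C. Compounds pre-incubated 30 min at room temperature, then 10 nM LPA added; intracellular Ca2+ flux measured and IC50 from titration curves.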

T1 sequence (Q92633 whole entry): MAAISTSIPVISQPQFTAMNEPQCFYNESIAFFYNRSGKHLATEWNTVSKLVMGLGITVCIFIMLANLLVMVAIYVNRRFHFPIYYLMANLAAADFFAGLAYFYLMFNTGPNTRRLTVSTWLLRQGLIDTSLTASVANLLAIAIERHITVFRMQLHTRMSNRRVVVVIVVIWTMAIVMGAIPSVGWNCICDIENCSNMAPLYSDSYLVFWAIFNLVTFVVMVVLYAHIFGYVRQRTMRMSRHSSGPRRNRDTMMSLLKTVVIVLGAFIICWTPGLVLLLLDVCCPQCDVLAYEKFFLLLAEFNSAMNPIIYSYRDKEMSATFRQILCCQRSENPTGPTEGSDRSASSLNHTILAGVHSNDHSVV

As usually defined, the IC50 is the midpoint of a concentration-inhibition curve. Turning to `Cc1noc(-c2ccc(-c3ccc(C4(C(=O)O)CC4)cc3)cc2)c1C(O)c1cn(Cc2ccccc2Cl)nn1` (stereo not shown) [Compound 1-61, 1-[4′-(4-{[1-(2-Chloro-benzyl)-1H-[1,2,3]triazol-4-yl]-hydroxy-methyl}-3-methyl-isoxazol-5-yl)-biphenyl-4-yl]-cyclopropanecarboxylic acid], the IC50 was less than 300 nM.

Consider `COc1ccc(-c2cccc(Nc3c(C)noc3-c3ccc(-c4ccc(C5(C(=O)O)CC5)cc4)cc3)c2)cn1` [Compound 1-102, 1-(4′-{4-[3-(6-Methoxy-pyridin-3-yl)-phenylamino]-3-methyl-isoxazol-5-yl}-biphenyl-4-yl)-cyclopropanecarboxylic acid], for which the IC50 was less than 300 nM.

Regarding `Cc1noc(-c2ccc(-c3ccc(C4(C(=O)O)CC4)cc3)cc2)c1Nc1cccc(-c2cccc(F)c2F)n1` [Compound 1-152, 1-(4′-{4-[6-(2,3-Difluoro-phenyl)-pyridin-2-ylamino]-3-methyl-isoxazol-5-yl}-biphenyl-4-yl)-cyclopropanecarboxylic acid], the IC50 is less than 300 nM.

Consider `Cc1noc(-c2ccc(-c3ccc(C(=O)O)cc3)cc2)c1Nc1nnc(-c2ccccc2)o1` [Compound 1-142, 4′-[3-Methyl-4-(5-phenyl-[1,3,4]oxadiazol-2-ylamino)-isoxazol-5-yl]-biphenyl-4-carboxylic acid], for which the IC50 was 1000 to 50000 nM.

With `Cc1noc(-c2ccc(-c3ccc(C4(C(=O)NS(C)(=O)=O)CC4)cc3)cc2)c1C(O)c1cn(Cc2cccc(C(F)(F)F)c2)nn1` (stereo not shown) [Compound 3-3, N-{1-[4′-(4-{Hydroxy-[1-(3-trifluoromethyl-benzyl)-1H-[1,2,3]triazol-4-yl]-methyl}-3-methyl-isoxazol-5-yl)-biphenyl-4-yl]-cyclopropanecarbonyl}-methanesulfonamide], the IC50 lay within 1000 to 50000 nM.

With `Cc1noc(-c2ccc(-c3ccc(C4(C(=O)O)CC4)cc3)cc2)c1NC1CCCCC1Cc1ccccc1` (stereo not shown) [Compound 1-1, 1-{4′-[4-(2-Benzyl-cyclohexylamino)-3-methyl-isoxazol-5-yl]-biphenyl-4-yl}-cyclopropanecarboxylic acid], the IC50 was less than 300 nM.

Consider `Cc1noc(-c2ccc(-c3ccc(C4(C(=O)O)CC4)cc3)cc2)c1Cn1nc(-c2ccccc2)oc1=N` [Compound 1-11, 1-{4′-[4-(2-Imino-5-phenyl-[1,3,4]oxadiazol-3-ylmethyl)-3-methyl-isoxazol-5-yl]-biphenyl-4-yl}-cyclopropanecarboxylic acid], for which the IC50 is less than 300 nM.

Regarding `Cc1noc(-c2ccc(-c3ccc(C4(C(=O)O)CC4)cc3)cc2)c1Nc1cccc(-c2cc(F)ccc2F)n1` [Compound 1-148, 1-(4′-{4-[6-(2,5-Difluoro-phenyl)-pyridin-2-ylamino]-3-methyl-isoxazol-5-yl}-biphenyl-4-yl)-cyclopropanecarboxylic acid], the IC50 was less than 300 nM.

`Cc1noc(-c2ccc(-c3ccc(C4(C(=O)O)CC4)cc3)cc2)c1Nc1nnc(Cc2ccccc2)o1` [Compound 1-83, 1-{4′-[4-(5-Benzyl-[1,3,4]oxadiazol-2-ylamino)-3-methyl-isoxazol-5-yl]-biphenyl-4-yl}-cyclopropanecarboxylic acid]: the IC50 is less than 300 nM.

Take `Cc1noc(-c2ccc(-c3ccc(C4(C(=O)O)CC4)cc3)cc2)c1Nc1cncc(-c2cc(F)ccc2F)c1` [Compound 1-161, 1-(4′-{4-[5-(2,5-Difluoro-phenyl)-pyridin-3-ylamino]-3-methyl-isoxazol-5-yl}-biphenyl-4-yl)-cyclopropanecarboxylic acid]: the IC50 was less than 300 nM.

As to `Cc1noc(-c2ccc(-c3ccc(C4(C(=O)O)CC4)cc3)cc2)c1N(c1cccc(Cc2ccccc2)n1)c1cccc(Cc2ccccc2)n1` [Compound 1-120, 1-(4′-{4-[Bis-(6-benzyl-pyridin-2-yl)-amino]-3-methyl-isoxazol-5-yl}-biphenyl-4-yl)-cyclopropanecarboxylic acid], the IC50 lay in the range of 1000 to 50000 nM.

On to `Cc1noc(-c2ccc(-c3ccc(CCC(=O)O)cc3)cc2)c1C(O)c1cn(Cc2ccccc2)nn1` (stereo not shown) [Compound 1-49, 3-(4′-{4-[(1-Benzyl-1H-[1,2,3]triazol-4-yl)-hydroxy-methyl]-3-methyl-isoxazol-5-yl}-biphenyl-4-yl)-propionic acid], for which the IC50 was less than 300 nM.

On to `Cc1noc(-c2ccc(-c3ccc(C4(C(=O)O)CC4)cc3)cc2)c1Nc1cccc(-c2ccccc2C(F)(F)F)c1` [Compound 1-101, 1-{4′-[3-Methyl-4-(2′-trifluoromethyl-biphenyl-3-ylamino)-isoxazol-5-yl]-biphenyl-4-yl}-cyclopropanecarboxylic acid], for which the IC50 is less than 300 nM.

Regarding `Cc1noc(-c2ccc(-c3ccc(C4(C(=O)O)CC4)cc3)cc2)c1Cc1nnc(Cc2ccccc2)o1` [Compound 1-29, 1-{4′-[4-(5-Benzyl-[1,3,4]oxadiazol-2-ylmethyl)-3-methyl-isoxazol-5-yl]-biphenyl-4-yl}-cyclopropanecarboxylic acid], the IC50 is less than 300 nM.

Regarding `Cc1noc(-c2ccc(-c3ccc(C4(C(=O)O)CC4)cc3)cc2)c1Nc1cccc(N2CCOC2=O)n1` [Compound 1-143, 1-(4′-{3-Methyl-4-[6-(2-oxo-oxazolidin-3-yl)-pyridin-2-ylamino]-isoxazol-5-yl}-biphenyl-4-yl)-cyclopropanecarboxylic acid], the IC50 was less than 300 nM.

`Cc1noc(-c2ccc(-c3ccc(C4(C(=O)O)CC4)cc3)cc2)c1C(O)c1cncc(Cc2ccccc2)c1` (stereo not shown) [Compound 1-59, 1-(4′-{4-[(5-Benzyl-pyridin-3-yl)-hydroxy-methyl]-3-methyl-isoxazol-5-yl}-biphenyl-4-yl)-cyclopropanecarboxylic acid]: the IC50 is less than 300 nM.

Take `Cc1noc(-c2ccc(-c3ccc(C4(C(=O)O)CC4)cc3)cc2)c1CN1CCCC(c2ccccc2)C1` (stereo not shown) [Compound 1-18, 1-{4′-[3-Methyl-4-(3-phenyl-piperidin-1-ylmethyl)-isoxazol-5-yl]-biphenyl-4-yl}-cyclopropanecarboxylic acid]: the IC50 is less than 300 nM.

For the molecule `Cc1noc(-c2ccc(-c3ccc(C4(C(=O)O)CC4)cc3)cc2)c1Nc1cccc(-c2ccccc2C#N)n1` [Compound 1-91, 1-(4′-{4-[6-(2-Cyano-phenyl)-pyridin-2-ylamino]-3-methyl-isoxazol-5-yl}-biphenyl-4-yl)-cyclopropanecarboxylic acid], the IC50 was less than 300 nM.

As for `Cc1noc(-c2ccc(-c3ccc(C4(C(=O)O)CC4)cc3)cc2)c1Nc1cccc(-c2ccccc2CN(C)C)c1` [Compound 1-117, 1-{4′-[4-(2′-Dimethylaminomethyl-biphenyl-3-ylamino)-3-methyl-isoxazol-5-yl]-biphenyl-4-yl}-cyclopropanecarboxylic acid], the IC50 was less than 300 nM.

For `Cc1noc(-c2ccc(-c3ccc(C4(C(=O)O)CC4)cc3)cc2)c1Nc1cncc(-c2ccccc2)c1` [Compound 1-107, 1-{4′-[3-Methyl-4-(5-phenyl-pyridin-3-ylamino)-isoxazol-5-yl]-biphenyl-4-yl}-cyclopropanecarboxylic acid], the IC50 is less than 300 nM.

On to `Cc1noc(-c2ccc(-c3ccc(C4(C(=O)O)CC4)cc3)cc2)c1Nc1cccc(OC(C)C2CCCCC2)n1` (stereo not shown) [Compound 1-140, 1-(4′-{4-[6-(1-Cyclohexyl-ethoxy)-pyridin-2-ylamino]-3-methyl-isoxazol-5-yl}-biphenyl-4-yl)-cyclopropanecarboxylic acid], for which the IC50 is less than 300 nM.

`Cc1noc(-c2ccc(-c3ccc(C4(C(=O)O)CC4)cc3)cc2)c1Nc1cccc(-c2cccc(C#N)c2)n1` [Compound 1-145, 1-(4′-{4-[6-(3-Cyano-phenyl)-pyridin-2-ylamino]-3-methyl-isoxazol-5-yl}-biphenyl-4-yl)-cyclopropanecarboxylic acid]: the IC50 is less than 300 nM.

As for `Cc1noc(-c2ccc(-c3ccc(C4(C(=O)O)CC4)cc3)cc2)c1Nc1cncc(-c2ccccc2)n1` [Compound 1-78, 1-{4′-[3-Methyl-4-(6-phenyl-pyrazin-2-ylamino)-isoxazol-5-yl]-biphenyl-4-yl}-cyclopropanecarboxylic acid], the IC50 is less than 300 nM.

As for `Cc1noc(-c2ccc(-c3ccc(C4(C(=O)O)CC4)cc3)cc2)c1NCc1cnc(-c2ccccc2)s1` [Compound 1-100, 1-(4′-{3-Methyl-4-[(2-phenyl-thiazol-5-ylmethyl)-amino]-isoxazol-5-yl}-biphenyl-4-yl)-cyclopropanecarboxylic acid], the IC50 was less than 300 nM.

As to `Cc1noc(-c2ccc(-c3ccc(C4(C(=O)O)CC4)cc3)cc2)c1Nc1cccc(-c2ccccc2Cl)n1` [Compound 1-109, 1-(4′-{4-[6-(2-Chloro-phenyl)-pyridin-2-ylamino]-3-methyl-isoxazol-5-yl}-biphenyl-4-yl)-cyclopropanecarboxylic acid], the IC50 was less than 300 nM.

As for `Cc1noc(-c2ccc(-c3ccc(C4(C(=O)O)CC4)cc3)cc2)c1Nc1cccc(Cc2cccc(F)c2)n1` [Compound 1-85, 1-(4′-{4-[6-(3-Fluoro-benzyl)-pyridin-2-ylamino]-3-methyl-isoxazol-5-yl}-biphenyl-4-yl)-cyclopropanecarboxylic acid], the IC50 was less than 300 nM.

`COc1c(F)cccc1-c1cccc(Nc2c(C)noc2-c2ccc(-c3ccc(C4(C(=O)O)CC4)cc3)cc2)n1` [Compound 1-159, 1-(4′-{4-[6-(3-Fluoro-2-methoxy-phenyl)-pyridin-2-ylamino]-3-methyl-isoxazol-5-yl}-biphenyl-4-yl)-cyclopropanecarboxylic acid]: the IC50 is less than 300 nM.

`Cc1noc(-c2ccc(-c3ccc(C4(C(=O)O)CC4)cc3)cc2)c1CN1C(=O)OC[C@@H]1c1ccccc1` [Compound 1-14, 1-{4′-[3-Methyl-4-((S)-2-oxo-4-phenyl-oxazolidin-3-ylmethyl)-isoxazol-5-yl]-biphenyl-4-yl}-cyclopropanecarboxylic acid]: the IC50 was 1000 to 50000 nM.

Values taken from patent publication US8664220B2, “Polycyclic compounds as lysophosphatidic acid receptor antagonists” (Amira Pharmaceuticals, Inc., priority 2009, dated 2014).
